Laboratory results reported in patent US7049303B2, “Inhibition of viruses” (Medical Research Council, priority 2001, dated 2006).

Assays:
[1] = tested on: human T-lymphocytes (CEM/O cells); experiment: Toxicity: inhibition of proliferation of human T-lymphocytes (CEM/O cells); type: cell-based; conditions: T-lymphocyte, read-out: IC50 (50% inhibitory concentration), proliferation of CEM/O cells
Description: Following synthesis, the various compounds were tested in vitro for toxicity, by measuring the IC50 (i.e. the concentration which caused 50% inhibition) in respect of the inhibitory effects of the compounds on the proliferation of human T-lymphocytes (CEM/O cells).

HIV-1(IIIB) = experiment: Serial passage of HIV-1 infected CEM cell cultures with sub-toxic drug, cytopathic effect (giant cell formation); type: cell-based; conditions: for percentage of cytopathic effect (giant cell formation), passage number 1: passage 1; for percentage of cytopathic effect (giant cell formation), passage number 1 / percentage of cytopathic effect (giant cell formation), passage number 2 / percentage of cytopathic effect (giant cell formation), passage number 3 / percentage of cytopathic effect (giant cell formation), passage number 4 / percentage of cytopathic effect (giant cell formation), passage number 5 / percentage of cytopathic effect (giant cell formation), passage number 6 / percentage of cytopathic effect (giant cell formation), passage number 7: subcultivation every 5 days; for percentage of cytopathic effect (giant cell formation), passage number 2: passage 2; for percentage of cytopathic effect (giant cell formation), passage number 3: passage 3; for percentage of cytopathic effect (giant cell formation), passage number 4: passage 4; for percentage of cytopathic effect (giant cell formation), passage number 5: passage 5; for percentage of cytopathic effect (giant cell formation), passage number 6: passage 6; for percentage of cytopathic effect (giant cell formation), passage number 7: passage 7; for antiviral activity (inhibition of HIV replication) in words: HIV-1 infected CEM cells, sub-toxic concentrations, up to 7 passages
Description: HIV-1 infected CEM cells were subcultured every 4–5 days in the presence of sub-toxic concentrations (in the range of 10–20% of their respective IC50 value) of the compounds under test. At each sub-culture, cell-free supernatant (10–20 μl) was transferred to fresh 1 ml cell cultures. At regular intervals the cultures were inspected microscopically to assess the extent of any cytopathic effect (giant cell formation). As an alternative, it is also possible to perform an immunoassay to quantify viral p24 production.
The preliminary results for up to 7 passages are shown below in Table 3.

CNc1nc(N)nc2c1ncn2[C@@H]1O[C@H](CO)[C@@H](O)[C@H]1O [JA23, 2-amino-N^6-methyladenosine] was tested, and the IC50 [1] was 622 ± 8 µM, the “percentage of cytopathic effect (giant cell formation), passage number 1” value (“percentage … passage number 1” below) (HIV-1(IIIB); 400 μM) was 100% and the “percentage of cytopathic effect (giant cell formation), passage number 2” value (shortened to “percentage … passage number 2”) (HIV-1(IIIB); 400 μM) was 100%. The “percentage of cytopathic effect (giant cell formation), passage number 3” value (“percentage … passage number 3” for short) (HIV-1(IIIB); 400 μM) was 12%, the “percentage of cytopathic effect (giant cell formation), passage number 4” value (“percentage … passage number 4” below) (HIV-1(IIIB); 400 μM) was 25% and the “percentage of cytopathic effect (giant cell formation), passage number 5” value (shortened to “percentage … passage number 5”) (HIV-1(IIIB); 400 μM) was 3%. The “percentage of cytopathic effect (giant cell formation), passage number 6” value (“percentage … passage number 6” for short) (HIV-1(IIIB); 400 μM) was 0%, the “percentage of cytopathic effect (giant cell formation), passage number 7” value (“percentage … passage number 7” below) (HIV-1(IIIB); 400 μM) was 0% and the “antiviral activity (inhibition of HIV replication) in words” value (HIV-1(IIIB)) was “moderately effective”.
With NNc1ncnc2c1ncn2[C@@H]1O[C@H](CO)[C@@H](O)[C@H]1O [JA25, N^6-aminoadenosine] the IC50 [1] was 12 ± 3 µM, the “percentage … passage number 1” value (HIV-1(IIIB); 0.8 μM) was 100% and the “percentage … passage number 2” value (HIV-1(IIIB); 0.8 μM) was 100%. For the same compound, the “percentage … passage number 3” value (HIV-1(IIIB); 0.8 μM) was 87%, the “percentage … passage number 4” value (HIV-1(IIIB); 0.8 μM) was 100% and the “percentage … passage number 5” value (HIV-1(IIIB); 0.8 μM) was 100%. The “percentage … passage number 6” value (HIV-1(IIIB); 0.8 μM) was 100%, the “percentage … passage number 7” value (HIV-1(IIIB); 0.8 μM) was 100% and the “percentage … passage number 1” value (HIV-1(IIIB); 2 μM) was 100%. The “percentage … passage number 2” value (HIV-1(IIIB); 2 μM) was 100%, the “percentage … passage number 3” value (HIV-1(IIIB); 2 μM) was 100% and the “percentage … passage number 4” value (HIV-1(IIIB); 2 μM) was 100%. For the same compound, the “percentage … passage number 5” value (HIV-1(IIIB); 2 μM) was 100%, the “percentage … passage number 6” value (HIV-1(IIIB); 2 μM) was 100% and the “percentage … passage number 7” value (HIV-1(IIIB); 2 μM) was 100%.
In the case of O=c1nc(NO)ccn1[C@@H]1O[C@H](CO)[C@@H](O)[C@H]1O [JA29, N^4-hydroxycytidine, reference compound], the IC50 [1] is reported as 16 ± 1 µM, the “percentage … passage number 1” value (HIV-1(IIIB); 0.8 μM) is reported as 100% and the “percentage … passage number 2” value (HIV-1(IIIB); 0.8 μM) is reported as 100%. The “percentage … passage number 3” value (HIV-1(IIIB); 0.8 μM) was 12%, the “percentage … passage number 4” value (HIV-1(IIIB); 0.8 μM) was 100% and the “percentage … passage number 5” value (HIV-1(IIIB); 0.8 μM) was 100%. For the same compound, the “percentage … passage number 6” value (HIV-1(IIIB); 0.8 μM) was 100%, the “percentage … passage number 7” value (HIV-1(IIIB); 0.8 μM) was 100% and the “percentage … passage number 1” value (HIV-1(IIIB); 2 μM) was 100%. The “percentage … passage number 2” value (HIV-1(IIIB); 2 μM) was 100%, the “percentage … passage number 3” value (HIV-1(IIIB); 2 μM) was 25% and the “percentage … passage number 4” value (HIV-1(IIIB); 2 μM) was 100%. The “percentage … passage number 5” value (HIV-1(IIIB); 2 μM) was 100%, the “percentage … passage number 6” value (HIV-1(IIIB); 2 μM) was 100% and the “percentage … passage number 7” value (HIV-1(IIIB); 2 μM) was 100%. The “antiviral activity (inhibition of HIV replication) in words” value (HIV-1(IIIB)) was “does not demonstrate any antiviral activity”.
For CN(N)c1ncnc2c1ncn2[C@@H]1O[C@H](CO)[C@@H](O)[C@H]1O [JA27, N^6-amino-N^6-methyladenosine], the IC50 [1] was 17 ± 2 µM, the “percentage … passage number 1” value (HIV-1(IIIB); 4 μM) was 100% and the “percentage … passage number 2” value (HIV-1(IIIB); 4 μM) was 100%. For the same compound, the “percentage … passage number 3” value (HIV-1(IIIB); 4 μM) was 6%, the “percentage … passage number 4” value (HIV-1(IIIB); 4 μM) was 25% and the “percentage … passage number 5” value (HIV-1(IIIB); 4 μM) was 25%. The “percentage … passage number 6” value (HIV-1(IIIB); 4 μM) was 0%, the “percentage … passage number 7” value (HIV-1(IIIB); 4 μM) was 0% and the “antiviral activity (inhibition of HIV replication) in words” value (HIV-1(IIIB)) was “moderately effective”.
With CONc1ncnc2c1ncn2[C@@H]1O[C@H](CO)[C@@H](O)[C@H]1O [JA26, N^6-methoxyadenosine] the IC50 [1] was 44 ± 2 µM, the “percentage … passage number 1” value (HIV-1(IIIB); 4 μM) was 100% and the “percentage … passage number 2” value (HIV-1(IIIB); 4 μM) was 100%. For the same compound, the “percentage … passage number 3” value (HIV-1(IIIB); 4 μM) was 25%, the “percentage … passage number 4” value (HIV-1(IIIB); 4 μM) was 100% and the “percentage … passage number 5” value (HIV-1(IIIB); 4 μM) was 100%. The “percentage … passage number 6” value (HIV-1(IIIB); 4 μM) was 12%, the “percentage … passage number 7” value (HIV-1(IIIB); 4 μM) was 3% and the “percentage … passage number 1” value (HIV-1(IIIB); 10 μM) was 100%. The “percentage … passage number 2” value (HIV-1(IIIB); 10 μM) was 100%, the “percentage … passage number 3” value (HIV-1(IIIB); 10 μM) was 25% and the “percentage … passage number 4” value (HIV-1(IIIB); 10 μM) was 100%. For the same compound, the “percentage … passage number 5” value (HIV-1(IIIB); 10 μM) was 100%, the “percentage … passage number 6” value (HIV-1(IIIB); 10 μM) was 12% and the “percentage … passage number 7” value (HIV-1(IIIB); 10 μM) was 3%.
OC[C@H]1O[C@@H](n2cnc3c(NO)ncnc32)[C@H](O)[C@@H]1O [JA28, N^6hydroxyadenosine] was tested, and the IC50 [1] was 156 ± 15 µM, the “percentage … passage number 1” value (HIV-1(IIIB); 20 μM) was 100% and the “percentage … passage number 2” value (HIV-1(IIIB); 20 μM) was 100%. The “percentage … passage number 3” value (HIV-1(IIIB); 20 μM) was 19%, the “percentage … passage number 4” value (HIV-1(IIIB); 20 μM) was 100% and the “percentage … passage number 5” value (HIV-1(IIIB); 20 μM) was 100%. For the same compound, the “percentage … passage number 6” value (HIV-1(IIIB); 20 μM) was 100%, the “percentage … passage number 7” value (HIV-1(IIIB); 20 μM) was 100% and the “percentage … passage number 1” value (HIV-1(IIIB); 40 μM) was 100%. The “percentage … passage number 2” value (HIV-1(IIIB); 40 μM) was 100%, the “percentage … passage number 3” value (HIV-1(IIIB); 40 μM) was 50% and the “percentage … passage number 4” value (HIV-1(IIIB); 40 μM) was 100%. The “percentage … passage number 5” value (HIV-1(IIIB); 40 μM) was 100%, the “percentage … passage number 6” value (HIV-1(IIIB); 40 μM) was 75% and the “percentage … passage number 7” value (HIV-1(IIIB); 40 μM) was 6%.
In the case of CONc1nc(N)nc2c1ncn2[C@@H]1O[C@H](CO)[C@@H](O)[C@H]1O [JA31, 2-amino-6-methoxyamino-9-β-D-ribofuranosylpurine], the IC50 [1] is reported as 377 ± 62 µM, the “percentage … passage number 1” value (HIV-1(IIIB); 20 μM) is reported as 100% and the “percentage … passage number 2” value (HIV-1(IIIB); 20 μM) is reported as 100%. For the same compound, the “percentage … passage number 3” value (HIV-1(IIIB); 20 μM) was 3%, the “percentage … passage number 4” value (HIV-1(IIIB); 20 μM) was 19% and the “percentage … passage number 5” value (HIV-1(IIIB); 20 μM) was 12%. For the same compound, the “percentage … passage number 6” value (HIV-1(IIIB); 20 μM) was 0%, the “percentage … passage number 7” value (HIV-1(IIIB); 20 μM) was 0% and the “percentage … passage number 1” value (HIV-1(IIIB); 50 μM) was 100%. The “percentage … passage number 2” value (HIV-1(IIIB); 50 μM) was 100%, the “percentage … passage number 3” value (HIV-1(IIIB); 50 μM) was 0% and the “percentage … passage number 4” value (HIV-1(IIIB); 50 μM) was 0%. The “percentage … passage number 5” value (HIV-1(IIIB); 50 μM) was 0%, the “percentage … passage number 6” value (HIV-1(IIIB); 50 μM) was 0% and the “percentage … passage number 7” value (HIV-1(IIIB); 50 μM) was 0%. The “antiviral activity (inhibition of HIV replication) in words” value (HIV-1(IIIB)) was “effective at inhibiting the replication of RNA viruses” and the “antiviral activity (inhibition of HIV replication) in words” value (HIV-1(IIIB); listed as rK) was “active in reducing viral titer”.
For Nc1nc(NO)c2ncn([C@@H]3O[C@H](CO)[C@@H](O)[C@H]3O)c2n1 [JA30, 2-amino-N^6-hydroxyadenosine], the IC50 [1] was 78 ± 3 µM, the “percentage … passage number 1” value (HIV-1(IIIB); 10 μM) was 100% and the “percentage … passage number 2” value (HIV-1(IIIB); 10 μM) was 100%. The “percentage … passage number 3” value (HIV-1(IIIB); 10 μM) was 25%, the “percentage … passage number 4” value (HIV-1(IIIB); 10 μM) was 100% and the “percentage … passage number 5” value (HIV-1(IIIB); 10 μM) was 100%. The “percentage … passage number 6” value (HIV-1(IIIB); 10 μM) was 100% and the “percentage … passage number 7” value (HIV-1(IIIB); 10 μM) was 50%.
In the case of O=C1NC2=NOCCC2=CN1[C@H]1C[C@H](O)[C@@H](CO)O1 [JA21, 6-(2-deoxy-β-D-ribofuranosyl)-3,4-dihydro-8H-pyrimido[4,5-c][1,2] oxazin-7-one, reference compound], the IC50 [1] is reported as 690 ± 14 µM, the “percentage … passage number 1” value (HIV-1(IIIB); 400 μM) is reported as 100% and the “percentage … passage number 2” value (HIV-1(IIIB); 400 μM) is reported as 100%. The “percentage … passage number 3” value (HIV-1(IIIB); 400 μM) was 25%, the “percentage … passage number 4” value (HIV-1(IIIB); 400 μM) was 50% and the “percentage … passage number 5” value (HIV-1(IIIB); 400 μM) was 37%. For the same compound, the “percentage … passage number 6” value (HIV-1(IIIB); 400 μM) was 12% and the “percentage … passage number 7” value (HIV-1(IIIB); 400 μM) was 6%.
